Experimental data reported in ChEMBL document CHEMBL1671626, “In vitro profiling of ceftaroline against a collection of recent bacterial clinical isolates from across the United States” (2008).

Legend:
Format in all cases: functional
Streptococcus agalactiae [1] = assay: Antibacterial activity against erythromycin-nonsusceptible Streptococcus agalactiae by CLSI M7-A7 broth microdilution method
Enterococcus faecium [2] = assay: Antibacterial activity against vancomycin-resistant Enterococcus faecium assessed as susceptible isolates by CLSI M7-A7 broth microdilution method
Streptococcus viridans [3] = assay: Antibacterial activity against penicillin-susceptible Streptococcus viridans assessed as resistant isolates by CLSI M7-A7 broth microdilution method
Staphylococcus aureus [4] = assay: Antibacterial activity against coagulase-negative and oxacillin-susceptible Staphylococcus aureus assessed as susceptible isolates by CLSI M7-A7 broth microdilution method
Moraxella catarrhalis = assay: Antibacterial activity against beta lactamase-positive Moraxella catarrhalis by CLSI M7-A7 broth microdilution method
Staphylococcus aureus [5] = assay: Antibacterial activity against coagulase-negative and oxacillin-resistant Staphylococcus aureus assessed as susceptible isolates by CLSI M7-A7 broth microdilution method
Streptococcus pyogenes [6] = assay: Antibacterial activity against erythromycin-susceptible Streptococcus pyogenes by CLSI M7-A7 broth microdilution method
Streptococcus viridans [7] = assay: Antibacterial activity against penicillin-susceptible Streptococcus viridans by CLSI M7-A7 broth microdilution method
Streptococcus pneumoniae = assay: Antibacterial activity against penicillin-susceptible Streptococcus pneumoniae assessed as susceptible isolates by CLSI M7-A7 broth microdilution method
Enterococcus faecium [8] = assay: Antibacterial activity against vancomycin-resistant Enterococcus faecium assessed as resistant isolates by CLSI M7-A7 broth microdilution method
Streptococcus agalactiae [9] = assay: Antibacterial activity against erythromycin-susceptible Streptococcus agalactiae by CLSI M7-A7 broth microdilution method
Streptococcus viridans [10] = assay: Antibacterial activity against penicillin-nonsusceptible Streptococcus viridans assessed as susceptible isolates by CLSI M7-A7 broth microdilution method
Streptococcus viridans [11] = assay: Antibacterial activity against penicillin-nonsusceptible Streptococcus viridans by CLSI M7-A7 broth microdilution method
Streptococcus viridans [12] = assay: Antibacterial activity against penicillin-susceptible Streptococcus viridans assessed as susceptible isolates by CLSI M7-A7 broth microdilution method
Enterococcus faecalis [13] = assay: Antibacterial activity against vancomycin-susceptible Enterococcus faecalis by CLSI M7-A7 broth microdilution method
Staphylococcus aureus [14] = assay: Antibacterial activity against methicillin-resistant Staphylococcus aureus by CLSI M7-A7 broth microdilution method
Enterococcus faecalis [15] = assay: Antibacterial activity against vancomycin-susceptible Enterococcus faecalis assessed as resistant isolates by CLSI M7-A7 broth microdilution method
Streptococcus pyogenes [16] = assay: Antibacterial activity against erythromycin-susceptible Streptococcus pyogenes assessed as susceptible isolates by CLSI M7-A7 broth microdilution method
Enterococcus faecalis [17] = assay: Antibacterial activity against vancomycin-resistant Enterococcus faecalis assessed as resistant isolates by CLSI M7-A7 broth microdilution method
Streptococcus viridans [18] = assay: Antibacterial activity against penicillin-nonsusceptible Streptococcus viridans assessed as resistant isolates by CLSI M7-A7 broth microdilution method
Streptococcus agalactiae [19] = assay: Antibacterial activity against erythromycin-nonsusceptible Streptococcus agalactiae assessed as susceptible isolates by CLSI M7-A7 broth microdilution method
Staphylococcus aureus [20] = assay: Antibacterial activity against methicillin-susceptible Staphylococcus aureus by CLSI M7-A7 broth microdilution method
Staphylococcus aureus [21] = assay: Antibacterial activity against methicillin-susceptible Staphylococcus aureus assessed as susceptible isolates by CLSI M7-A7 broth microdilution method
Enterococcus faecalis [22] = assay: Antibacterial activity against vancomycin-susceptible Enterococcus faecalis assessed as susceptible isolates by CLSI M7-A7 broth microdilution method
Pasteurella multocida = assay: Antibacterial activity against Pasteurella multocida by CLSI M7-A7 broth microdilution method
Streptococcus pyogenes [23] = assay: Antibacterial activity against erythromycin-nonsusceptible Streptococcus pyogenes assessed as susceptible isolates by CLSI M7-A7 broth microdilution method
Enterococcus faecium [24] = assay: Antibacterial activity against vancomycin-resistant Enterococcus faecium by CLSI M7-A7 broth microdilution method
Streptococcus pyogenes [25] = assay: Antibacterial activity against erythromycin-nonsusceptible Streptococcus pyogenes by CLSI M7-A7 broth microdilution method
Staphylococcus aureus [26] = assay: Antibacterial activity against coagulase-negative and oxacillin-resistant Staphylococcus aureus by CLSI M7-A7 broth microdilution method
Streptococcus agalactiae [27] = assay: Antibacterial activity against erythromycin-susceptible Streptococcus agalactiae assessed as susceptible isolates by CLSI M7-A7 broth microdilution method
Staphylococcus aureus [28] = assay: Antibacterial activity against coagulase-negative and oxacillin-susceptible Staphylococcus aureus by CLSI M7-A7 broth microdilution method
Enterococcus faecalis [29] = assay: Antibacterial activity against vancomycin-resistant Enterococcus faecalis by CLSI M7-A7 broth microdilution method

CC(=O)NC[C@H]1CN(c2ccc(N3CCOCC3)c(F)c2)C(=O)O1 [LINEZOLID]
99.3%: Activity (Staphylococcus aureus [5])
2 mg/L: MIC50 (Enterococcus faecalis [13]) | MIC90 (Enterococcus faecalis [13]) | MIC50 (Staphylococcus aureus [14]) | MIC90 (Staphylococcus aureus [14]) | MIC50 (Staphylococcus aureus [20]) | MIC90 (Staphylococcus aureus [20]) | MIC50 (Enterococcus faecium [24]) | MIC90 (Enterococcus faecium [24]) | MIC90 (Staphylococcus aureus [26]) | MIC90 (Staphylococcus aureus [28]) | MIC50 (Enterococcus faecalis [29]) | MIC90 (Enterococcus faecalis [29])
1 mg/L: MIC50 (Streptococcus agalactiae [1]) | MIC90 (Streptococcus agalactiae [1]) | MIC50 (Streptococcus pyogenes [6]) | MIC90 (Streptococcus pyogenes [6]) | MIC50 (Streptococcus viridans [7]) | MIC90 (Streptococcus viridans [7]) | MIC (Streptococcus agalactiae [9]) | MIC50 (Streptococcus agalactiae [9]) | MIC90 (Streptococcus agalactiae [9]) | MIC50 (Streptococcus viridans [11]) | MIC90 (Streptococcus viridans [11]) | MIC (Streptococcus pyogenes [25]) | MIC50 (Streptococcus pyogenes [25]) | MIC90 (Streptococcus pyogenes [25]) | MIC50 (Staphylococcus aureus [26]) | MIC50 (Staphylococcus aureus [28])
100%: Activity (Enterococcus faecium [2]) | Activity (Staphylococcus aureus [4]) | Activity (Streptococcus pneumoniae) | Activity (Streptococcus viridans [10]) | Activity (Streptococcus viridans [12]) | Activity (Streptococcus pyogenes [16]) | Activity (Streptococcus agalactiae [19]) | Activity (Staphylococcus aureus [21]) | Activity (Enterococcus faecalis [22]) | Activity (Streptococcus pyogenes [23]) | Activity (Streptococcus agalactiae [27])
4 mg/L: MIC50 (Moraxella catarrhalis) | MIC90 (Moraxella catarrhalis) | MIC50 (Pasteurella multocida)
> 4 mg/L: MIC90 (Pasteurella multocida)
0%: Activity (Streptococcus viridans [3]) | Activity (Enterococcus faecium [8]) | Activity (Enterococcus faecalis [15]) | Activity (Enterococcus faecalis [17]) | Activity (Streptococcus viridans [18])
